Patent publication US6603023B2 (priority 1996, dated 2003)
Where “and” joins values, the source holds several entries; their conditions need not be identical. Identical values can stand only once. Counter-ions that a name gives are not always drawn. Like-named read-outs stand apart in the source and are kept apart here. Marks after values point to notes of the source that are not given here.

Key:
[1] = system: P388/Adr; test: cells; type: cell-based, murine; conditions: Table 1C
Procedure: The drug-resistant cell lines were continuously cultured in the presence of the selecting agent, AD, DX, VBL or VM to maintain the drug resistant phenotypes. […] All cells were cultured in RPMI 1640-10% FBS at 37° C. 5% CO2 (see below).
The cells were cultured at an initial density of 5×10^4 cells/mL. They were maintained in a 5% CO2-humidified atmosphere at 37° C. in RPMI-1640 medium (GIBCO-BRL, Gaithersburg, Md.) containing penicillin (100 U/mL), streptomycin ([…]) (GIBCO-BRL) and 10% heat inactivate fetal bovine serum. Culture for cell suspension (such as for CCRF-CEM, P388 and sublines), were performed by the XTT-microculture tetrazonium method (Scudiero, D. A. et al., Cancer Res. 1988, 48, 4827-4833) in duplicate in 96-well microtiter plates.
2′,3′-Bis(methoxy-4-nitro-5-sufophenyl)-5-[(phenylamino)carbonyl]2H-tetrazolium hyudroxide (XTT) was prepared at 1 mg/mL in prewarmed (37° C.) medium without serum. Phenazine methosulfate (PMS) and fresh XTT were mixed together to obtain 0.025 mM PMS-XTT solution (25 μL of the stock 5 mM PMS was added per 5 mL of 1 mg/mL XTT). Following a 72 h incubation, 50 μL of the assay aliquots were added to each well of the cell culture. After incubation at 37° C. for 4 h, absorbance at 450 nm and 630 nm was measured with a microplate reader (EL340, Bio-Tek Instruments, Inc., Winooski, Vt.).

[2] = system: human mammary carcinoma MX-1 xenograft; conditions: for Average Body Weight, Day 7: initial weight, first treatment day
Procedure: DMSO was used as a vehicle for epothilones. Each mouse received ≦40 μL DMSO in all experiments.
Athymic nude mice (nu/nu) were used for MX-1 and MCF-7/Adr human mammary carcinoma xenografts. Mice were obtained from Taconic Laboratory Animals and Service (Germantown, N.Y.: outbred, Swiss background).

[3] = 0.3 mg/kg i.p. Q2Dx5 from day 7, day 11
[4] = 0.3 mg/kg i.p. Q2Dx5 from day 7, day 13
[5] = 0.3 mg/kg i.p. Q2Dx5 from day 7, day 15
[6] = 0.3 mg/kg i.p. Q2Dx5 from day 7, day 17
[7] = 0.6 mg/kg i.p. Q2Dx5 from day 7, day 11
[8] = 0.6 mg/kg i.p. Q2Dx5 from day 7, day 13
[9] = 0.6 mg/kg i.p. Q2Dx5 from day 7, day 15
[10] = 0.6 mg/kg i.p. Q2Dx5 from day 7, day 17
[11] = 0.6 mg/kg i.p. Q2Dx5 from day 9
[12] = 0.6 mg/kg i.p. Q2Dx5 from day 9, day 13
[13] = 0.6 mg/kg i.p. Q2Dx5 from day 9, day 15
[14] = 0.6 mg/kg i.p. Q2Dx5 from day 9, day 17
[15] = 0.6 mg/kg i.p. Q2Dx5 from day 9, day 19
[16] = high doses: dEpoB 25, EpoB 0.6, Taxol 10, Vinblastine 0.4 mg/kg i.p. Q2D from day 7
[17] = low doses: dEpoB 15, EpoB 0.3, Taxol 5, Vinblastine 0.2 mg/kg i.p. Q2D day 7-15

**Q.** `C/C(=C\c1csc(C)n1)[C@@H]1C[C@@H]2O[C@]2(C)CCC[C@H](C)[C@H](O)[C@@H](C)C(=O)C(C)(C)[C@@H](O)CC(=O)O1` [Epothilone B, epothilone B] was tested. Which “folds of resistance (IC50 ratio vs parent cell line)” value ([1]; P388/Adr vs P388/O) did it give?
**A.** (5.5x)

**Q.** And the IC50 ([1]; XTT, 72 h, read-out: IC50)?
**A.** 1.6 nM

**Q.** And the “Toxicity Death” value ([2]; 0.3 mg/kg i.p. Q2Dx5 from day 7)?
**A.** 0/7

**Q.** And the “Average Body Weight Change” value [2, 3]?
**A.** +0.5 g

**Q.** And the “Average Tumor Size (T/C)” value [2, 3]?
**A.** 1.00

**Q.** What about the “Average Body Weight Change” value [2, 4] of the same molecule?
**A.** +0.4 g

**Q.** What about the “Average Tumor Size (T/C)” value [2, 4] of the same molecule?
**A.** 0.71

**Q.** And the “Average Body Weight Change” value [2, 5]?
**A.** -0.3 g

**Q.** And the “Average Tumor Size (T/C)” value [2, 5]?
**A.** 0.71

**Q.** What about the “Average Body Weight Change” value [2, 6] of the same molecule?
**A.** -1.2 g

**Q.** And the “Average Tumor Size (T/C)” value [2, 6]?
**A.** 0.84

**Q.** And the “Toxicity Death” value ([2]; 0.6 mg/kg i.p. Q2Dx5 from day 7)?
**A.** 3/7)##

**Q.** What about the “Average Body Weight Change” value [2, 7] of the same molecule?
**A.** -0.3 g

**Q.** And the “Average Tumor Size (T/C)” value [2, 7]?
**A.** 1.08

**Q.** And the “Average Body Weight Change” value [2, 8]?
**A.** -1.3 g

**Q.** What about the “Average Tumor Size (T/C)” value [2, 8] of the same molecule?
**A.** 0.73

**Q.** What about the “Average Body Weight Change” value [2, 9] of the same molecule?
**A.** -2.1 g

**Q.** What about the “Average Tumor Size (T/C)” value [2, 9] of the same molecule?
**A.** 0.81

**Q.** What about the “Average Body Weight Change” value [2, 10] of the same molecule?
**A.** -2.1 g

**Q.** And the “Average Tumor Size (T/C)” value [2, 10]?
**A.** 0.74

**Q.** And the “Toxicity Death” value [2, 11]?
**A.** 0/6

**Q.** And the “Tumor Disapp.” value [2, 11]?
**A.** 0/6

**Q.** And the “Average Body Weight Change” value [2, 12]?
**A.** -0.9 g

**Q.** And the “Average Tumor Size (T/C)” value [2, 12]?
**A.** 0.67

**Q.** What about the “Average Body Weight Change” value [2, 13] of the same molecule?
**A.** 0.5 g

**Q.** What about the “Average Tumor Size (T/C)” value [2, 13] of the same molecule?
**A.** 0.63

**Q.** And the “Average Body Weight Change” value [2, 14]?
**A.** -3.3 g

**Q.** What about the “Average Tumor Size (T/C)” value [2, 14] of the same molecule?
**A.** 0.61

**Q.** And the “Average Body Weight Change” value [2, 15]?
**A.** -3.4 g

**Q.** And the “Average Tumor Size (T/C)” value [2, 15]?
**A.** 0.51

**Q.** And the “average body weight decrease” value ([2]; EpoB 0.3 mg/kg i.p. days 7-15)?
**A.** over 1 g

**Q.** What about the “average body weight decrease” value ([2]; EpoB 0.6 mg/kg i.p. days 7-15) of the same molecule?
**A.** > 2 g

**Q.** What about the “mice died of toxicity” value ([2]; EpoB 0.6 mg/kg i.p. days 7-15) of the same molecule?
**A.** three out of seven

**Q.** And the “Therapeutic effect Rank Order” value ([2]; MX-1, i.p., comparison with Camptothecin, VBL, EpoB (order wraps over rows r7-r8))?
**A.** Taxol ® > VBL, EpoB

**Q.** And the “Average Body Weight (change), Day 11” value [2, 16]?
**A.** -0.3 g

**Q.** And the “Average Body Weight (change), Day 13” value [2, 16]?
**A.** -1.3 g

**Q.** And the “Average Body Weight (change), Day 15” value [2, 16]?
**A.** -2.1 g

**Q.** And the “Average Body Weight Change, Day 17” value [2, 16]?
**A.** -2.1 g

**Q.** And the “Average Tumor Volume (T/C), Day 11” value [2, 16]?
**A.** 1.08 T/C

**Q.** What about the “Average Tumor Volume (T/C), Day 13” value [2, 16] of the same molecule?
**A.** 0.73 T/C

**Q.** And the “Average Tumor Volume (T/C), Day 15” value [2, 16]?
**A.** 0.81 T/C

**Q.** And the “Average Tumor Volume (T/C), Day 17” value [2, 16]?
**A.** 0.74 T/C

**Q.** And the “Note: died (mice died/total)” value [2, 16]?
**A.** 3/7 died

**Q.** What about the “Average Body Weight, Day 7” value [2, 16] of the same molecule?
**A.** 27.4 g

**Q.** And the “Average Body Weight, Day 7” value [2, 17]?
**A.** 26.9 g

**Q.** And the “Average Body Weight (change), Day 11” value [2, 17]?
**A.** +0.5 g

**Q.** What about the “Average Body Weight (change), Day 13” value [2, 17] of the same molecule?
**A.** +0.4 g

**Q.** What about the “Average Body Weight (change), Day 15” value [2, 17] of the same molecule?
**A.** -0.3 g

**Q.** What about the “Average Body Weight Change, Day 17” value [2, 17] of the same molecule?
**A.** -1.2 g

**Q.** What about the “Average Tumor Volume (T/C), Day 11” value [2, 17] of the same molecule?
**A.** 1.00 T/C

**Q.** What about the “Average Tumor Volume (T/C), Day 13” value [2, 17] of the same molecule?
**A.** 0.71 T/C

**Q.** And the “Average Tumor Volume (T/C), Day 15” value [2, 17]?
**A.** 0.71 T/C

**Q.** What about the “Average Tumor Volume (T/C), Day 17” value [2, 17] of the same molecule?
**A.** 0.84 T/C

**Q.** And the “Note: died (mice died/total)” value [2, 17]?
**A.** 0/7 died

**Q.** For `CC[C@]1(O)C[C@@H]2CN(CCc3c([nH]c4ccccc34)[C@@](C(=O)OC)(c3cc4c(cc3OC)N(C)[C@H]3[C@@](O)(C(=O)OC)[C@H](OC(C)=O)[C@]5(CC)C=CCN6CC[C@]43[C@@H]65)C2)C1` [Vinblastine, Vinblastine sulfate], which “Average Body Weight Change” value ([2]; 0.2 mg/kg i.p. Q2Dx5 from day 7, day 11) is on record?
**A.** +0.6 g

**Q.** What about the “Average Body Weight Change” value ([2]; 0.2 mg/kg i.p. Q2Dx5 from day 7, day 13) of the same molecule?
**A.** +1.4 g

**Q.** And the “Average Body Weight Change” value ([2]; 0.2 mg/kg i.p. Q2Dx5 from day 7, day 15)?
**A.** +2.3 g

**Q.** What about the “Average Body Weight Change” value ([2]; 0.2 mg/kg i.p. Q2Dx5 from day 7, day 17) of the same molecule?
**A.** +2.9 g

**Q.** What about the “Average Body Weight Change” value ([2]; 0.4 mg/kg i.p. Q2Dx5 from day 7, day 11) of the same molecule?
**A.** +0.8 g

**Q.** What about the “Average Body Weight Change” value ([2]; 0.4 mg/kg i.p. Q2Dx5 from day 7, day 13) of the same molecule?
**A.** +0.5 g

**Q.** What about the “Average Body Weight Change” value ([2]; 0.4 mg/kg i.p. Q2Dx5 from day 7, day 15) of the same molecule?
**A.** +1.9 g

**Q.** What about the “Average Body Weight Change” value ([2]; 0.4 mg/kg i.p. Q2Dx5 from day 7, day 17) of the same molecule?
**A.** +2.1 g

**Q.** What about the “Average Tumor Volume (T/C), Day 11” value [2, 16] of the same molecule?
**A.** 0.80 T/C

**Q.** And the “Average Tumor Volume (T/C), Day 13” value [2, 16]?
**A.** 0.56 T/C

**Q.** And the “Average Tumor Volume (T/C), Day 15” value [2, 16]?
**A.** 0.83 T/C

**Q.** And the “Average Tumor Volume (T/C), Day 17” value [2, 16]?
**A.** 0.88 T/C

**Q.** And the “Average Body Weight, Day 7” value [2, 16]?
**A.** 26.4 g

**Q.** And the “Average Body Weight, Day 7” value [2, 17]?
**A.** 25.7 g

**Q.** What about the “Average Tumor Volume (T/C), Day 11” value [2, 17] of the same molecule?
**A.** 0.65 T/C

**Q.** What about the “Average Tumor Volume (T/C), Day 13” value [2, 17] of the same molecule?
**A.** 0.54 T/C

**Q.** And the “Average Tumor Volume (T/C), Day 15” value [2, 17]?
**A.** 0.56 T/C

**Q.** What about the “Average Tumor Volume (T/C), Day 17” value [2, 17] of the same molecule?
**A.** 0.88 T/C

**Q.** And the “Note: died (mice died/total)” value ([2]; male, athymic nude (nu/nu), mouse, in vivo)?
**A.** 0/7 died

**Q.** And the “Note: died (mice died/total)” value ([2]; male, athymic nude (nu/nu), outbred, Swiss background, mouse, in vivo)?
**A.** 1/7 died

**Q.** And the “Average Tumor Size (T/C)” value ([2]; mouse, in vivo)?
**A.** 0.88 and 0.65 and 0.54 and 0.56 and 0.80 and 0.83
